Reference: PMC6982123 (ACS chemical neuroscience, 2019)
“Also recorded” adds a separate entry of the source. Read-outs that look alike come from different tables or passages of the source. Square brackets hold non-standard residues; d marks the D form. Peptide text beside a SMILES is read from it. * marks the point of attachment. ξ: configuration not given here. Aoe(9ξ) = N[C@@H](CCCCCC(=O)C1CO1)C(=O)O; Asu = N[C@@H](CCCCCC(=O)O)C(=O)O; dPip = O=C(O)[C@H]1CCCCN1; NHOH = ON*

Tests used:
[1] = system: H3K9ac; conditions: treatment at 10 μM; cited from earlier work
[2] = system: PGRN; conditions: cited from earlier work
[3] = system: PGRN; experiment: Intracellular PGRN ELISA in iPSC-derived NPCs; format: cell-based, human; conditions: for Effect on PGRN (1 μM, NPCs) / PGRN induction (in words): 18 h treatment; for Effect on PGRN (1 μM, NPCs): intracellular PGRN; for PGRN induction (in words): Figure 2; for EC50: Homo sapiens, read-out: EC50 of PGRN induction (dose-response curves)
[4] = system: H3K9ac; experiment: Histone H3 acetylation Western blot in NPCs; format: cell-based, human
[5] = molecular target: HDAC2 (Homo sapiens, UniProt Q92769); format: biochemical
[6] = molecular target: HDAC1 (Homo sapiens, UniProt Q13547); experiment: biochemical; format: biochemical
[7] = system: HDACs 1–3; experiment: HDAC inhibition kinetics, summary statement over HDACs 1-3; format: biochemical; conditions: summary over HDACs 1–3 (Tables 1 and S1)
[8] = molecular target: HDAC3 in combination with the DAD domain of NCoR2 (Homo sapiens, UniProt O15379); conditions: read-out: Ki HDAC3; cited from earlier work
[9] = system: human iPSC-derived NPCs and Ngn2 neurons; experiment: Cellular viability during PGRN experiments; format: cell-based; conditions: 10 μM, 18 h treatment (Figure 2)
[10] = system: HDAC6; conditions: previously reported; cited from earlier work
[11] = kinetic model from progression curves

Sequence of HDAC1 (Q13547 9-376 limits assumed): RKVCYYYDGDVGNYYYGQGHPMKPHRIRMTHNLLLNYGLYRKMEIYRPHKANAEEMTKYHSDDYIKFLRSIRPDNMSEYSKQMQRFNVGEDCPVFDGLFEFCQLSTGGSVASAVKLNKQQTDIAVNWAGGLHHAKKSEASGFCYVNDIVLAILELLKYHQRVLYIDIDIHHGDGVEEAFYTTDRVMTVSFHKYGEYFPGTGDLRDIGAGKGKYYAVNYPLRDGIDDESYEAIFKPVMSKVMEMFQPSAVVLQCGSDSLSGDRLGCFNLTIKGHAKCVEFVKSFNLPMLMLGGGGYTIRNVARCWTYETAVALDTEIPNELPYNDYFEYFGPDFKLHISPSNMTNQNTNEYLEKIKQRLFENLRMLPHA
Sequence of HDAC2 (Q92769 9-376 limits assumed): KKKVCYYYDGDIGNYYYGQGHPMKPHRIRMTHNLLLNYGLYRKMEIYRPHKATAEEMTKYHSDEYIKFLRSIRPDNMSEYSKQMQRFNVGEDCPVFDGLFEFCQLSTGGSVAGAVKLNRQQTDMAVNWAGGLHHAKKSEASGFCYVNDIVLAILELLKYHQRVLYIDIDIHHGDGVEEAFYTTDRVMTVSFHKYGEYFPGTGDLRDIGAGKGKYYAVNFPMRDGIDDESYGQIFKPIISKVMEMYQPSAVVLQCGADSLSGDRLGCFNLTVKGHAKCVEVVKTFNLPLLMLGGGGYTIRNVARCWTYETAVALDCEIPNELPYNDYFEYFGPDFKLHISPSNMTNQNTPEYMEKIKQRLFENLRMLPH
Sequence of HDAC3 in combination with the DAD domain of NCoR2 (O15379 whole entry, the tested form may be a part): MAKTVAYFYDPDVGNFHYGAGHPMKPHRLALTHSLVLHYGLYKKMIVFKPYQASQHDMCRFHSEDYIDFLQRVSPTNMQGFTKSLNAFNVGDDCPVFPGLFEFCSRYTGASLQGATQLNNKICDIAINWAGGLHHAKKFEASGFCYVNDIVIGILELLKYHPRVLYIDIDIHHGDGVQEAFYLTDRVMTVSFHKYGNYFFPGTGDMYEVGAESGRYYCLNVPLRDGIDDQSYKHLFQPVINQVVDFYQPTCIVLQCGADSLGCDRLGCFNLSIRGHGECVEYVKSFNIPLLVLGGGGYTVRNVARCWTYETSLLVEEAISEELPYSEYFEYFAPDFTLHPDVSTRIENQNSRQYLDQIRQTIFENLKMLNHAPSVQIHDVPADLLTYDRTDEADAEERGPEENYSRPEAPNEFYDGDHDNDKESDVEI
Sequence of HDAC3 in combination with the DAD domain of NCoR2 (Q9Y618 395-489 partner limits assumed): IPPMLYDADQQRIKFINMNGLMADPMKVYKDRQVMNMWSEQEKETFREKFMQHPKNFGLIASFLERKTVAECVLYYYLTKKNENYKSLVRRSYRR

Molecule | Effect on PGRN (1 μM, NPCs) ([3]; NPCs) | PGRN induction (in words) ([3]; NPCs) | Effect on H3K9ac (1 μM, NPCs) ([4]; NPCs, 18 h treatment) | Mechanism of binding HDAC1 [6, 11] | EC50 ([3]; 18 h) [nM] | Mechanism of binding HDAC2 [5, 11] | dissociative half-life (dis. t½) [7] | also measured
O=C(CCCCCCC(=O)Nc1ccccc1)NO [Compound 1, SAHA] |  |  |  |  |  |  |  | Effect on H3K9ac (NPCs) [1]: >20 fold incr.‡, [10]; Effect on PGRN (NPCs) ([2]; treatment at 10 μM): >2 fold incr.‡, [10]
O=C(CCCCCCC(=O)C(F)(F)F)Nc1ccccc1 [Compound 2, SATK] | No change | not able to affect PGRN production | No change |  |  |  |  | 
CC(=O)Nc1ccc(C(=O)Nc2ccccc2N)cc1 [Compound 3, tacedinaline] |  | not able to affect PGRN production |  | mechanism B type of slow-binding inhibition | > 20000 |  |  | Mechanism of binding HDAC2 [5]: mechanism B type of slow-binding inhibition; Effect on PGRN (NPCs) ([3]; treatment at 10 μM, NPCs, 18 h): Decrease^‡; Intensity of histone marks (H3 acetylation at K9 and K27) ([4]; Western blot, 18 h treatment, Figure 3 and S7): levels comparable to panobinostat; Effect on H3K9ac (NPCs) ([4]; treatment at 10 μM, NPCs, 18 h): ~18 fold incr^‡
CC(=O)Nc1ccc(C(=O)Nc2cc(-c3cccs3)ccc2N)cc1 [Compound 4, Cpd-60] |  |  |  |  |  |  |  | PGRN induction (in words) ([2]; human neuronal cell culture): not able to affect PGRN production
Cc1[nH]c2ccccc2c1CCNCc1ccc(/C=C/C(=O)NO)cc1 [Compound 5, panobinostat] | ~2.3 fold incr. |  | ~36 fold incr. |  | 200 ± 10 | slow, tight-binding inhibition profiles (mechanism B); also recorded: effectively irreversible behavior | over 20 min | 
O=C(CCCCC[C@@H]1NC(=O)[C@H]2CCCCN2C(=O)[C@H](Cc2ccccc2)NC(=O)[C@H](Cc2ccccc2)NC1=O)C1CO1 (stereo partly shown) [Compound 6, trapoxin A] (cyclo(FF[dPip][Aoe(9ξ)])) | ~2.4 fold incr. | substantial increase in PGRN | ~5.0 fold incr. | mechanism A kinetics | 22 ± 1 | mechanism A kinetics |  | Ki [6]: ~0.003 nM
O=C(CCCCC[C@@H]1NC(=O)[C@H]2CCCN2C(=O)[C@H](Cc2ccccc2)NC(=O)[C@H](Cc2ccccc2)NC1=O)NO [Compound 7c, TpxB^Asuha] (cyclo([Asu](NHOH)FF[dP])) | ~2.2 fold incr. | substantial increase in PGRN | ~6.3 fold incr. |  |  |  | over 20 min | Ki [8]: ~0.02 nM
CCC(=O)CCCCC[C@@H]1NC(=O)[C@H]2CCCCN2C(=O)[C@H]([C@@H](C)CC)NC(=O)[C@H](Cc2cn(OC)c3ccccc23)NC1=O [Compound 8a, apicidin] | ~1.7 fold incr. |  | ~3.3 fold incr. |  | 790 ± 20 | fast-on/fast-off binding kinetics |  | Mechanism of binding HDAC1 [6]: fast-on/fast-off binding kinetics
C/C=C1\NC(=O)[C@H]2CSSCC/C=C/[C@H](CC(=O)N[C@H](C(C)C)C(=O)N2)OC(=O)[C@H](C(C)C)NC1=O [Compound 10, romidepsin] | ~4.1 fold incr. | substantial increase in PGRN | ~2.3 fold incr. | slow, tight-binding (mechanism B) |  |  | over 20 min | Cellular viability [9]: impaired cellular viability; Ki [6]: ~0.02 nM
C[C@@H]1NC(=O)[C@H]2CCCN2C(=O)[C@H](CCCCCC(=O)[C@@H]2CO2)NC(=O)[C@@H](C)NC1=O [Compound S2, HC-toxin] |  |  |  |  |  |  |  | Mechanism of binding HDAC6 [10]: fast-on/fast-off kinetics
trichostatin A [Compound S1] |  |  |  | slow, tight-binding inhibition profiles (mechanism B) |  | slow, tight-binding inhibition profiles (mechanism B) | over 20 min | 
